# Read-outs that look alike come from different tables or passages of the source.
# How the values were obtained:
# [1] = tested on: HIV-1RF; assay: XTT cytoprotection assay, CEM-SS cells infected with HIV-1RF; assay type: cell-based; conditions: for EC50: read-out: EC50 (50% cytoprotection)
# Text: (§1) One exemplary means to determine antiviral activity is with CEM-SS cells and virus (e.g., HIV-1RF) (MOI=0.01) using the XTT (2,3-bis[2-methoxy-4-nitro-5-sulfophenyl]-5-[(phenylamino)carbonyl]-2H-tetrazolium hydroxide) cytoprotection assay, as described by Rice (1993) PNAS 90:9721-9724, and Rice (1997) Antimicrob. Agents Chemother. […] Briefly, cells are infected with HIV-1RF (or other virus to be tested) in the presence of various dilutions of test compounds or control compounds. The cultures are incubated for seven days. […] The cell death is measured by XTT dye reduction. XTT is a soluble tetrazolium dye that measures mitochondrial energy output, similar to MTT. […] Individual assays are done in duplicate using a sister plate method.
# as §1, with “{2,3-bis[2-methoxy-4-nitro-5-sulfophenyl]-5- -[(phenylamino)carbonyl]-2H-tetrazolium hydroxide}” for “(2,3-bis[2-methoxy-4-nitro-5-sulfophenyl]-5-[(phenylamino)carbonyl]-2H-tetrazolium hydroxide)”, “Proc. Natl. Acad. Sci. USA 90: 9721-9724,” for “PNAS 90:9721-9724,”, “Agents &” for “Agents”, “and controls.” for “or control compounds.”, “method. […] Compound numbers therein refer to the numbers used in FIG. 1.” for “method.”
# [2] = tested on: HIV p24; assay: p24 inhibition ELISA assay, HIV transgenic mouse model spleen cells; assay type: cell-based; conditions: for EC50: Human immunodeficiency virus 1; for Therapeutic Index: p24 inhibition ELISA, HIV transgenic mouse model spleen cells
# Text: (§2) One of the advantages of the compounds of the present invention over previously identified antiretroviral agents is their increased hydrolytic stability, which improves their biological activity and reduces the amount of compound that must be delivered to a treated subject to produce the desired effect. […] A PATE compound having the following structure is included: […]
# [3] = tested on: HIV transgenic mouse model spleen cells; assay: Cytotoxicity, HIV transgenic mouse model spleen cells; assay type: cell-based
# Text: as §2
# [4] = Hydrolysis assay (relative rates of hydrolysis); assay type: in vitro ADME
# Text: as §2
# [5] = XTT assay, cytotoxicity (cellular growth inhibition) in CEM-SS cells; assay type: cell-based; conditions: human
# Text: as §1
# as §1, with “{2,3-bis[2-methoxy-4-nitro-5-sulfophenyl]-5- -[(phenylamino)carbonyl]-2H-tetrazolium hydroxide}” for “(2,3-bis[2-methoxy-4-nitro-5-sulfophenyl]-5-[(phenylamino)carbonyl]-2H-tetrazolium hydroxide)”, “Proc. Natl. Acad. Sci. USA 90: 9721-9724,” for “PNAS 90:9721-9724,”, “Agents &” for “Agents”, “and controls.” for “or control compounds.”, “method. […] Compound numbers therein refer to the numbers used in FIG. 1.” for “method.”
# [6] = Human immunodeficiency virus 1, 168 h, HIV-1RF, CEM-SS cells, seven days, XTT
# [7] = Human immunodeficiency virus 1, CEM-SS, 168 h
SMILES,"Therapeutic Index ([1]; HIV-1RF, CEM-SS cells)","EC50 [1, 6]",EC50 [2],Therapeutic Index [2],IC50 [3],half-life [4],IC50 at 7 days [5],"EC50 [1, 7]"
COc1ccc(C(=O)Sc2ccccc2C(=O)NCCC(N)=O)cc1OC [Compound 11],24,6.9 µM,3.6 µM,>69,> 250 µM,4.07 h,165 µM,
Cc1cccc(C(=O)NCCC(N)=O)c1SC(=O)c1ccccc1 [Compound 61],,,15.7 µM,,,7.02 h,,
Cc1ccccc1C(=O)Sc1ccccc1C(=O)NCCC(N)=O [Compound 22],2.3,9.7 µM,2.6 µM,23,59 µM,6.8 h,22 µM,
C[C@H](NC(=O)c1ccccc1SC(=O)OCCBr)C(N)=O [Compound 104],160,1.16 µM,,,,,186 µM,
C[C@H](NC(=O)c1ccccc1SC(=O)OCCCCCl)C(N)=O [Compound 81],97,2.07 µM,,,,,200 µM,
CSC(=N)Sc1ccccc1C(=O)NCCC(N)=O [Compound 137],28.2,0.71 µM,,,,,20 µM,
C[C@@H](NC(=O)c1ccccc1SC(=O)NCCBr)C(N)=O [Compound 89],8.7,,,,,,8 µM,0.92 µM
NC(=O)CNC(=O)c1ccccc1SC(=O)OCCBr [Compound 101],232,1.36 µM,,,,,> 316 µM,
COc1ccccc1C(=O)Sc1ccccc1C(=O)NCCC(N)=O [Compound 9],298,2.7 µM,,,,,790 µM,
C[C@H](NC(=O)c1ccccc1SC(=O)NCCBr)C(N)=O [Compound 112],5,,,,,,5.2 µM,1.05 µM
CSC(=N)Sc1ccccc1C(=O)N[C@H](C)C(N)=O [Compound 139],37.7,0.53 µM,,,,,20 µM,
CC(C)(C)c1ccc(C(=O)Sc2ccccc2C(=O)NCCC(N)=O)cc1 [Compound 23],24,4.5 µM,2.2 µM,56,123 µM,> 8.33 h,107 µM,
C[C@H](NC(=O)c1ccccc1SC(=O)NCCCCl)C(N)=O [Compound 86],140,0.8 µM,,,,,112 µM,
CC(C)(C)NC(=O)Sc1ccccc1C(=O)NCC(N)=O [Compound 142],2.9,6.9 µM,,,,,20 µM,
CCCNC(=O)Sc1ccccc1C(=O)N[C@@H](C)C(N)=O [Compound 96],21,1.32 µM,,,,,27.5 µM,
NC(=O)CCNC(=O)c1ccccc1SC(=O)c1cccnc1 [Compound 19],161,2.9 µM,,,,,461 µM,
NS(=O)(=O)c1ccc(CNC(=O)c2ccccc2SC(=O)OCCCCCl)cc1 [Compound 84],27,2.36 µM,,,,,64.4 µM,
COc1cc(OC)cc(C(=O)Sc2ccccc2C(=O)NCCC(N)=O)c1 [Compound 12],13,8.1 µM,3.5 µM,39,136 µM,7.75 h,102 µM,

SMILES,"Therapeutic Index ([1]; HIV-1RF, CEM-SS cells)","EC50 [1, 6]",EC50 [2],Therapeutic Index [2],IC50 [3],half-life [4],IC50 at 7 days [5],"EC50 [1, 7]"
Cc1ccc(C(=O)Sc2ccccc2C(=O)NCCC(N)=O)cc1 [Compound 21],38,5.2 µM,,,,,197 µM,
NS(=O)(=O)c1ccc(CNC(=O)c2ccccc2SC(=O)Oc2ccc([N+](=O)[O-])cc2)cc1 [Compound 78],36,1.58 µM,,,,,57 µM,
NC(=O)CCNC(=O)c1ccc(Cl)cc1SC(=O)c1cccnc1 [Compound 25],18,31.8 µM,,,,,573 µM,
COc1ccc(C(=O)Sc2ccccc2C(=O)NCCC(N)=O)cc1 [Compound 13],11,3.7 µM,,,,,42 µM,
NC(=O)CNC(=O)c1ccccc1SC(=O)OCCCCCl [Compound 80],65,3.07 µM,,,,,200 µM,
CSC(=N)Sc1ccccc1C(=O)NCC(N)=O [Compound 138],31.7,0.63 µM,,,,,20 µM,
CCOC(=O)CCNC(=O)Sc1ccccc1C(=O)NCCC(N)=O [Compound 115],196,0.59 µM,,,,,117 µM,
COc1cc(C(=O)Sc2ccccc2C(=O)NCCC(N)=O)cc(OC)c1OC [Compound 10],>53,3.8 µM,,,,,> 200 µM,
NC(=O)CCNC(=O)c1ccc(Cl)cc1SC(=O)Cc1ccccc1 [Compound 26],14,2.5 µM,,,,,35 µM,
CCCCCNC(=O)Sc1ccccc1C(=O)N[C@H](C)C(N)=O [Compound 119],179,0.3 µM,,,,,54.4 µM,
CCCCNC(=O)Sc1ccccc1C(=O)NCCC(N)=O [Compound 118],74,0.53 µM,,,,,38.7 µM,
CC(C)COC(=O)Sc1ccccc1C(=O)N[C@H](C)C(N)=O [Compound 77],168,1.37 µM,,,,,230 µM,
NC(=O)CCNC(=O)c1cccc(SC(=O)c2cccnc2)c1 [Compound 18],>6.7,149 µM,,,,,> 1000 µM,
CCCCCCNC(=O)Sc1ccccc1C(=O)N[C@H](C)C(N)=O [Compound 121],107,0.76 µM,,,,,81 µM,
CCCNC(=O)Sc1ccccc1C(=O)N[C@H](C)C(N)=O [Compound 95],27,0.85 µM,,,,,22.6 µM,
CCCCNC(=O)Sc1ccccc1C(=O)N[C@H](C)C(N)=O [Compound 117],64,0.51 µM,,,,,32.2 µM,
NC(=O)CNC(=O)c1ccccc1SC(=O)NCCBr [Compound 110],3.4,,,,,,5.23 µM,1.53 µM
C[C@@H](NC(=O)c1ccccc1SC(=O)OCCCCCl)C(N)=O [Compound 82],68,2.94 µM,,,,,200 µM,

# Reference: patent US7528274B2, “Acylthiols and component thiol compositions as anti-HIV and anti-retroviral agents” (The United States of America as represented by the …, priority 2001, dated 2009)
